Source: ChEMBL document CHEMBL1201862, “PubChem BioAssay data set” (2004)
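Following 48 hours of exposure in 96-well plates, responses at five concentrations were used to interpolate endpoints linearly. Abbreviation: GI50, concentration required for 50% inhibition of growth.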 Calls of active or inactive are those of the source. Cut-off read from the data, not from the text of the source: active = GI50 up to about 1.1 µM and inactive = higher.

What was measured:
Assay in all cases: growth of human tumour cells (NCI), 48 h
U-251 = tested on: U-251
OVCAR-4 = tested on: OVCAR-4
NCI-H522 = tested on: NCI-H522
LOX IMVI = tested on: LOX IMVI
NCI-H226 = tested on: NCI-H226
HL-60 = tested on: HL-60
SN12C = tested on: SN12C
MOLT-4 = tested on: MOLT-4
SNB-19 = tested on: SNB-19
NCI/ADR-RES = tested on: NCI/ADR-RES
M14 = tested on: M14
SF-295 = tested on: SF-295
PC-3 = tested on: PC-3
HCT-15 = tested on: HCT-15
UO-31 = tested on: UO-31

Row | SMILES | GI50 (U-251) | GI50 (OVCAR-4) | GI50 (NCI-H522) | GI50 (LOX IMVI) | GI50 (NCI-H226) | GI50 (HL-60) | GI50 (SN12C) | GI50 (MOLT-4) | GI50 (SNB-19) | GI50 (NCI/ADR-RES) | GI50 (M14) | GI50 (SF-295) | GI50 (PC-3) | GI50 (HCT-15) [µM] | GI50 (UO-31)
1 | Cc1nn(C(=O)c2ccncc2)c2c1C(c1ccccc1O)SC(=N)N2 (stereo not given) | > 10 µM (inactive) | > 10 µM (inactive) | > 10 µM (inactive) | > 10 µM (inactive) | > 10 µM (inactive) | > 10 µM (inactive) | > 10 µM (inactive) | > 10 µM (inactive) | > 10 µM (inactive) | > 10 µM (inactive) | > 10 µM (inactive) | > 10 µM (inactive) | > 10 µM (inactive) | > 10 | –
2 | COc1ccc(/C=C2\N/C(=N/N)N=C2Cl)cc1 | > 100 µM (inactive) | > 100 µM (inactive) | > 100 µM (inactive) | > 100 µM (inactive) | > 100 µM (inactive) | > 100 µM (inactive) | > 100 µM (inactive) | > 100 µM (inactive) | > 100 µM (inactive) | > 100 µM (inactive) | > 100 µM (inactive) | > 100 µM (inactive) | > 100 µM (inactive) | > 100 | > 100 µM (inactive)
3 | CCCCCCCCCCCCCCCCOCC(Cl)CP(=O)(O)OP(=O)(O)OCC1OC(n2cnc3c(N)ncnc32)C(O)C1O (stereo not given) | 74 µM (inactive) | > 100 µM (inactive) | > 100 µM (inactive) | > 100 µM (inactive) | > 100 µM (inactive) | > 100 µM (inactive) | > 100 µM (inactive) | > 100 µM (inactive) | 60.3 µM (inactive) | > 100 µM (inactive) | > 100 µM (inactive) | – | > 100 µM (inactive) | > 100 | > 100 µM (inactive)
4 | CN(/N=C/c1ccccc1C(=O)O)C1=NCCCCN1 | > 100 µM (inactive) | > 100 µM (inactive) | 19.1 µM (inactive) | > 100 µM (inactive) | > 100 µM (inactive) | > 100 µM (inactive) | > 100 µM (inactive) | > 100 µM (inactive) | > 100 µM (inactive) | > 100 µM (inactive) | > 100 µM (inactive) | > 100 µM (inactive) | > 100 µM (inactive) | > 100 | > 100 µM (inactive)
5 | CC(C)=CCC/C(C)=C/Cc1c2c(c3oc(-c4ccc(O)c(O)c4)c(O)c(=O)c3c1O)C=CC(C)(C)O2 | 3.21 µM (inactive) | 2.25 µM (inactive) | 0.916 µM (active) | – | 6.22 µM (inactive) | 1.68 µM (inactive) | 5.98 µM (inactive) | 1.77 µM (inactive) | 5.85 µM (inactive) | 5.32 µM (inactive) | 2.8 µM (inactive) | 5.62 µM (inactive) | 5.16 µM (inactive) | 2.1 | 3.44 µM (inactive)
6 | Cc1ccc(-c2cs/c(=N\c3ccccc3)n2NC(=O)c2ccncc2)cc1 | 19.1 µM (inactive) | 36.9 µM (inactive) | – | 34.2 µM (inactive) | 28.4 µM (inactive) | 19.4 µM (inactive) | 45.2 µM (inactive) | 26.4 µM (inactive) | 46.8 µM (inactive) | 28.3 µM (inactive) | 33 µM (inactive) | 27.6 µM (inactive) | 27.4 µM (inactive) | 42.5 | 30.6 µM (inactive)
7 | NCCN1CCCCCc2ccccc21 | > 10 µM (inactive) | > 10 µM (inactive) | > 10 µM (inactive) | > 10 µM (inactive) | > 10 µM (inactive) | > 10 µM (inactive) | > 10 µM (inactive) | > 10 µM (inactive) | > 10 µM (inactive) | > 10 µM (inactive) | – | > 10 µM (inactive) | > 10 µM (inactive) | > 10 | > 10 µM (inactive)
8 | CC1CC/C(=C\c2ccc(F)cc2)C2=C1C(c1ccc(F)cc1)NC(=S)N2 (stereo not given) | 61.4 µM (inactive) | – | – | 48.2 µM (inactive) | 46.1 µM (inactive) | 38.5 µM (inactive) | 97.7 µM (inactive) | 49.2 µM (inactive) | > 100 µM (inactive) | 53.6 µM (inactive) | 50.9 µM (inactive) | 54.7 µM (inactive) | 30 µM (inactive) | 41 | 23.2 µM (inactive)
9 | C=C1C(=O)O[C@@H]2/C=C(/C)[C@@H](OC(C)=O)C[C@@H](O)/C(C)=C\[C@@H](OC(=O)[C@]3(C)O[C@@H]3C)[C@@H]12 | 17.5 µM (inactive) | 21.9 µM (inactive) | 1.28 µM (inactive) | 7.26 µM (inactive) | 40.4 µM (inactive) | 2.39 µM (inactive) | 12.3 µM (inactive) | 3.91 µM (inactive) | 47.4 µM (inactive) | 46.6 µM (inactive) | 12.5 µM (inactive) | 50.9 µM (inactive) | 17.6 µM (inactive) | 12.9 | –
10 | C#CCOC(=O)C(N)CS (stereo not given) | > 100 µM (inactive) | – | > 100 µM (inactive) | > 100 µM (inactive) | > 100 µM (inactive) | > 100 µM (inactive) | > 100 µM (inactive) | > 100 µM (inactive) | – | > 100 µM (inactive) | > 100 µM (inactive) | > 100 µM (inactive) | > 100 µM (inactive) | – | > 100 µM (inactive)
11 | CCSC1=N/C(=C/c2ccccc2O)C(=O)N1 | 38.7 µM (inactive) | – | > 100 µM (inactive) | 52 µM (inactive) | 31.9 µM (inactive) | > 100 µM (inactive) | 67.1 µM (inactive) | > 100 µM (inactive) | > 100 µM (inactive) | 45.5 µM (inactive) | > 100 µM (inactive) | 91 µM (inactive) | > 100 µM (inactive) | > 100 | 38.5 µM (inactive)
12 | O=[N+]([O-])C(=C(NCc1ccccc1)NCc1ccccc1)C(Cl)=C(Cl)Cl | – | 31.7 µM (inactive) | 37 µM (inactive) | 17.4 µM (inactive) | 39.5 µM (inactive) | 20.2 µM (inactive) | 34.9 µM (inactive) | 23.1 µM (inactive) | 28.2 µM (inactive) | 45.1 µM (inactive) | 26 µM (inactive) | 24.5 µM (inactive) | 32.1 µM (inactive) | 23.3 | 25.3 µM (inactive)
13 | CSc1nc2c(c(=O)[nH]1)N=C(c1ccccc1)CC(c1ccccc1)N2 (stereo not given) | 34 µM (inactive) | 30.3 µM (inactive) | 19.2 µM (inactive) | 24.8 µM (inactive) | 39.7 µM (inactive) | 22.9 µM (inactive) | 21.2 µM (inactive) | 18.9 µM (inactive) | 39.1 µM (inactive) | 24.4 µM (inactive) | 32.2 µM (inactive) | 34.7 µM (inactive) | 55.1 µM (inactive) | – | 50.4 µM (inactive)
14 | CC(C)C1=CCC2C(=C1)CCC1C(C)(C(=O)O)CCCC21C (stereo not given) | > 100 µM (inactive) | 56.8 µM (inactive) | > 100 µM (inactive) | > 100 µM (inactive) | > 100 µM (inactive) | 14.2 µM (inactive) | > 100 µM (inactive) | 63.1 µM (inactive) | – | 76.2 µM (inactive) | > 100 µM (inactive) | 97.7 µM (inactive) | > 100 µM (inactive) | > 100 | 79.1 µM (inactive)
